The values that follow come from paper PMC4497601 (Angewandte Chemie (International Ed. in English), 2014).

Test [1] addresses Hsp90. Particulars: read-out: KD ITC; cited from earlier work.
Test [2] addresses N-terminal ATPase domain of heat shock protein 90 (Hsp90) (Homo sapiens, UniProt P07900). The test is described as follows: LLS NMR direct titration of ligand against Hsp90. It is filed as binding.
A further test deals with Hsp90 ATP binding site (Homo sapiens, UniProt P07900). The test is described as follows: LLS screening in competition mode. Particulars: Δ=2.5 s; for binding to Hsp90 in LLS competition screening of mixtures: 500 μM spy ligand II, 2.5 μM Hsp90, 600 μM of each ligand.
The test system of test [3] is Hsp90. Particulars: cited from earlier work.

Entries after “also recorded” stand apart in the source; their conditions may differ.

For `Nc1ncnc2c1ncn2[C@@H]1O[C@H](COP(=O)(O)OP(=O)(O)O)[C@@H](O)[C@H]1O` [Ligand I, Adenosine diphosphate], the Kd (in general, the free concentration of one partner at which half of the binding sites on the other are occupied at equilibrium, for simple one-to-one binding) was 10 µM at Hsp90 [1] and 15 ± 10 µM in test [2]. The RLLS bound in test [2] (bound ligand, fitted from direct titration with 10 μM Hsp90) came out at 77 ± 6 s⁻¹. In addition, in test [2] (free ligand), the RLLS free turned out to be 731±7 ms^−1.
Take `N[C@@H](Cc1ccc(O)cc1)C(=O)O` [tyrosine]: at Hsp90 ATP binding site, the “binding to Hsp90 in LLS competition screening of mixtures” value (“binding to Hsp90 … of mixtures” for short) is recorded as “nonbinding”.
On to `NCc1ccc(F)c(F)c1` [3,4-difluorobenzylamine], for which, at Hsp90 ATP binding site, the “binding to Hsp90 … of mixtures” value is on record as “nonbinding”.
Consider `Cc1cnc(N)c(Br)c1` [Ligand V, 3-bromo-5-methylpyridin-2-ylamine], for which, on Hsp90 ATP binding site, the “binding to Hsp90 … of mixtures” value is recorded as “weakly binding”. The “binding to Hsp90 identified by fragment screening” value in the test with Hsp90 [3] is “weak ADP-competitive binders”.
Regarding `CC(C)c1cc(C(=O)N2Cc3ccc(CN4CCN(C)CC4)cc3C2)c(O)cc1O` [AT13387], the “LLS signal of spy ligand II on addition of competitor” value on Hsp90 ATP binding site (500 μM ligand II, 10 μM Hsp90, 10 μM competitor) was “almost completely restored; also recorded: partly restored”.
As to `Nc1ncccn1` [Ligand III, 2-aminopyrimidine], the Kd on Hsp90 [1] was more than 1000 µM.
Take `N=C(N)c1ccc(C(F)(F)F)cc1` [4-trifluoromethylbenzamidine]: the “binding to Hsp90 … of mixtures” value on Hsp90 ATP binding site is on record as “nonbinding”.
